Laboratory results reported in patent US20040044006A1, “Methods of use of quinolone compounds against pneumococcal and haemophilus bacteria” (priority 1999, published 2004).
≈ marks a conversion by molar mass, not a printed value. Where “and” joins values, the source holds several entries; their conditions need not be identical. Identical values can stand only once. Like-named read-outs stand apart in the source and are kept apart here.

How the values were obtained:
[1] = tested on: quinolone susceptible pneumococci (ciprofloxacin MICs ≦4.0 μg/ml); assay: Agar dilution MICs of 207 quinolone susceptible pneumococcal strains; format: cell-based, Streptococcus pneumoniae; conditions: Streptococcus pneumoniae; for MIC90: read-out: MIC90
How it was run: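 Agar dilution MICs by prior methods on Mueller-Hinton agar with 5% sheep blood; S. pneumoniae ATCC 49619 among QC strains each run. Isolates were recent U.S. strains plus some from South Africa, Europe and Korea.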

[2] = tested on: pneumococci with ciprofloxacin MICs ≧8 μg/ml; assay: Quinolone agar dilution MICs of 28 ciprofloxacin resistant pneumococcal strains, correlated with QRDR mutations; format: cell-based, Streptococcus pneumoniae
How it was run: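 Agar dilution MICs on Mueller-Hinton agar with 5% sheep blood, S. pneumoniae ATCC 49619 as QC in each run. Strains, from the US and several other countries, were also typed for parC, gyrA, parE and gyrB mutations and for efflux.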

pneumococcal strains = assay: Microbroth dilution MICs of strains tested by time-kill and PAE; format: cell-based; conditions: Streptococcus pneumoniae
How it was run: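 Broth MICs per NCCLS in cation-adjusted Mueller-Hinton broth with 5% lysed defibrinated horse blood. Used for 12 time-kill and 6 PAE strains. S. pneumoniae ATCC 49619 run as quality control.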

[3] = tested on: methicillin-susceptible and -resistant Staphylococcus aureus, methicillin-resistant Staphylococcus epidermidis and S. pneumoniae; conditions: previous studies; cited from earlier work
[4] = agar dilution, Penicillin I strains
[5] = agar dilution, Penicillin R strains
[6] = agar dilution, Penicillin S strains
[7] = agar dilution, all 207 strains (64 penicillin susceptible, 68 intermediate, 75 resistant)

**Q.** For CO/N=C1\CN(c2nc3c(cc2F)c(=O)c(C(=O)O)cn3C2CC2)CC1CN (racemic) [Gemifloxacin, (R,S)-7-(3-aminomethyl-4-methoxyiminopyrrolidin-1-yl)-1-cyclopropyl-6-fluoro-4-oxo-1,4-dihydro-1,8-naphthyridine-3-carboxylic acid], which MIC50 [1, 4] is on record?
**A.** Its MIC50 is 0.03 µg/mL (≈ 0.077 µM).

**Q.** And the MIC90 [1, 4]?
**A.** The MIC90 was 0.06 µg/mL (≈ 0.154 µM).

**Q.** And the MIC ([1]; agar dilution, Penicillin I strains, read-out: MIC range)?
**A.** The MIC was 0.008 to 0.25 µg/mL (≈ 0.0205 to 0.642 µM).

**Q.** And the MIC50 [1, 5]?
**A.** Its MIC50 is 0.03 µg/mL (≈ 0.077 µM).

**Q.** And the MIC90 [1, 5]?
**A.** Its MIC90 is 0.06 µg/mL (≈ 0.154 µM).

**Q.** And the MIC50 [1, 6]?
**A.** The MIC50 was 0.03 µg/mL (≈ 0.077 µM).

**Q.** And the MIC90 [1, 6]?
**A.** The MIC90 was 0.03 µg/mL (≈ 0.077 µM).

**Q.** And the MIC50 [1, 7]?
**A.** Its MIC50 is 0.03 µg/mL (≈ 0.077 µM).

**Q.** And the MIC90 [1, 7]?
**A.** Its MIC90 is 0.06 µg/mL (≈ 0.154 µM).

**Q.** And the MIC ([1]; read-out: MIC range, agar dilution, Penicillin R strains)?
**A.** Its MIC is 0.004 to 0.125 µg/mL (≈ 0.0103 to 0.321 µM).

**Q.** What about the MIC ([1]; read-out: MIC range, agar dilution, Penicillin S strains) of the same compound?
**A.** Its MIC is 0.008 to 0.125 µg/mL (≈ 0.0205 to 0.321 µM).

**Q.** What about the MIC50 ([2]; Streptococcus pneumoniae) of the same compound?
**A.** Its MIC50 is 0.25 µg/mL (≈ 0.642 µM).

**Q.** And the MIC90 ([2]; Streptococcus pneumoniae)?
**A.** Its MIC90 is 0.5 µg/mL (≈ 1.28 µM).

**Q.** And the MIC ([2]; Streptococcus pneumoniae, read-out: MICs in strains with three or four QRDR mutations, 20 strains, bound holds in all 20 (ciprofloxacin, levofloxacin, sparfloxacin), 19 (grepafloxacin), 10 (trovafloxacin), 18 (gemifloxacin))?
**A.** The MIC was less than 0.5 µg/mL.

**Q.** What about the MIC ([2]; Streptococcus pneumoniae, read-out: MICs in strains with three or four QRDR mutations, 21 strains, bound holds in all 21 (ciprofloxacin, levofloxacin, sparfloxacin), 20 (grepafloxacin), 11 (trovafloxacin), 19 (gemifloxacin)) of the same compound?
**A.** Its MIC is no more than 0.5 µg/mL.

**Q.** What about the MIC ([2]; Streptococcus pneumoniae, strain 2, ParC S79-Y, ParE I460-V, GyrA None, GyrB None) of the same compound?
**A.** Its MIC is 0.06 µg/mL (≈ 0.154 µM).

**Q.** And the MIC ([2]; Streptococcus pneumoniae, strain 3, ParC D83-N, ParE I460-V, GyrA S81-F, GyrB None)?
**A.** Its MIC is 0.06 µg/mL (≈ 0.154 µM).

**Q.** What about the MIC ([2]; Streptococcus pneumoniae, strain 3, ParC D83-N, ParE I460-V, GyrA S83-F, GyrB None) of the same compound?
**A.** The MIC was 0.06 µg/mL (≈ 0.154 µM).

**Q.** And the MIC ([2]; Streptococcus pneumoniae, strain 4, ParC S79-F, ParE I460-V, GyrA S81-F, GyrB None)?
**A.** The MIC was 0.06 µg/mL (≈ 0.154 µM).

**Q.** What about the MIC ([2]; Streptococcus pneumoniae, strain 4, ParC S79-F, ParE I460-V, GyrA S83-F, GyrB None) of the same compound?
**A.** The MIC was 0.06 µg/mL (≈ 0.154 µM).

**Q.** What about the MIC ([2]; Streptococcus pneumoniae, strain 5, ParC R95-C, ParE D435-N, GyrA S81-F, GyrB None) of the same compound?
**A.** The MIC was 0.125 µg/mL (≈ 0.321 µM).

**Q.** And the MIC ([2]; Streptococcus pneumoniae, strain 5, ParC R95-C, ParE D435-N, GyrA S83-F, GyrB None)?
**A.** Its MIC is 0.125 µg/mL (≈ 0.321 µM).

**Q.** And the MIC ([2]; Streptococcus pneumoniae, strain 6, ParC S79-Y, ParE I460-V, GyrA E85-K, GyrB None)?
**A.** Its MIC is 0.125 µg/mL (≈ 0.321 µM).

**Q.** What about the MIC ([2]; Streptococcus pneumoniae, strain 6, ParC S79-Y, ParE I460-V, GyrA E87-K, GyrB None) of the same compound?
**A.** The MIC was 0.125 µg/mL (≈ 0.321 µM).

**Q.** What about the MIC ([2]; Streptococcus pneumoniae, strain 7, ParC None, ParE I460-V, GyrA None, GyrB None) of the same compound?
**A.** Its MIC is 0.125 µg/mL (≈ 0.321 µM).

**Q.** What about the MIC ([2]; Streptococcus pneumoniae, strain 8, ParC S79-Y, ParE None, GyrA None, GyrB None) of the same compound?
**A.** Its MIC is 0.125 µg/mL (≈ 0.321 µM).

**Q.** What about the MIC ([2]; Streptococcus pneumoniae, strain 9, ParC S79-Y, ParE None, GyrA None, GyrB None) of the same compound?
**A.** Its MIC is 0.125 µg/mL (≈ 0.321 µM).

**Q.** What about the MIC ([2]; Streptococcus pneumoniae, strain 10, ParC S79-F, ParE I460-V, GyrA S81-C, GyrB None) of the same compound?
**A.** Its MIC is 0.125 µg/mL (≈ 0.321 µM).

**Q.** And the MIC ([2]; Streptococcus pneumoniae, strain 10, ParC S79-F, ParE I460-V, GyrA S83-C, GyrB None)?
**A.** Its MIC is 0.125 µg/mL (≈ 0.321 µM).

**Q.** What about the MIC ([2]; Streptococcus pneumoniae, strain 11, ParC S79-F, ParE I460-V, GyrA S81-F, GyrB None) of the same compound?
**A.** Its MIC is 0.125 µg/mL (≈ 0.321 µM).

**Q.** What about the MIC ([2]; Streptococcus pneumoniae, strain 11, ParC S79-F, ParE I460-V, GyrA S83-F, GyrB None) of the same compound?
**A.** The MIC was 0.125 µg/mL (≈ 0.321 µM).

**Q.** And the MIC ([2]; Streptococcus pneumoniae, strain 12, ParC S79-F, ParE I460-V, GyrA None, GyrB D435-N)?
**A.** Its MIC is 0.125 µg/mL (≈ 0.321 µM).

**Q.** What about the MIC ([2]; Streptococcus pneumoniae, strain 27, ParC S79-Y, ParE I460-V, GyrA S81-F, GyrB None) of the same compound?
**A.** Its MIC is 1 µg/mL (≈ 2.57 µM).

**Q.** What about the MIC ([2]; Streptococcus pneumoniae, strain 27, ParC S79-Y, ParE I460-V, GyrA S83-F, GyrB None) of the same compound?
**A.** Its MIC is 1 µg/mL (≈ 2.57 µM).

**Q.** And the MIC ([2]; Streptococcus pneumoniae, strain 28, ParC D83-G N91-D, ParE None, GyrA S81-F S114-G, GyrB None)?
**A.** The MIC was 1 µg/mL (≈ 2.57 µM).

**Q.** What about the MIC ([2]; Streptococcus pneumoniae, strain 28, ParC cell empty, ParE None, GyrA S83-F and S116-G, GyrB None) of the same compound?
**A.** The MIC was 1 µg/mL (≈ 2.57 µM).

**Q.** And the MIC Range ([2]; agar dilution, 28 strains with ciprofloxacin MICs ≧8.0 μg/ml)?
**A.** Its MIC Range is 0.03 to 1.0 µg/mL.

**Q.** And the MIC (pneumococcal strains; broth MIC, quinolone resistant PAE strain, read-out: MIC against the quinolone resistant strain tested for PAE)?
**A.** The MIC was 0.25 µg/mL (≈ 0.642 µM).

**Q.** What about the MIC (pneumococcal strains; strain 1 (S) penicillin susceptible, read-out: Microdilution MIC) of the same compound?
**A.** The MIC was 0.016 µg/mL (≈ 0.0411 µM).

**Q.** And the MIC (pneumococcal strains; strain 2 (S) penicillin susceptible, read-out: Microdilution MIC)?
**A.** The MIC was 0.016 µg/mL (≈ 0.0411 µM).

**Q.** What about the MIC (pneumococcal strains; strain 3 (S) penicillin susceptible, quinolone-resistant, read-out: Microdilution MIC) of the same compound?
**A.** The MIC was 0.5 µg/mL (≈ 1.28 µM).

**Q.** What about the MIC (pneumococcal strains; strain 4 (S) penicillin susceptible, quinolone-resistant, read-out: Microdilution MIC) of the same compound?
**A.** Its MIC is 0.25 µg/mL (≈ 0.642 µM).

**Q.** What about the MIC (pneumococcal strains; strain 5 (I) penicillin intermediate, read-out: Microdilution MIC) of the same compound?
**A.** The MIC was 0.03 µg/mL (≈ 0.077 µM).

**Q.** And the MIC (pneumococcal strains; strain 6 (I) penicillin intermediate, read-out: Microdilution MIC)?
**A.** Its MIC is 0.016 µg/mL (≈ 0.0411 µM).

**Q.** And the MIC (pneumococcal strains; strain 7 (I) penicillin intermediate, read-out: Microdilution MIC)?
**A.** The MIC was 0.016 µg/mL (≈ 0.0411 µM).

**Q.** What about the MIC (pneumococcal strains; strain 8 (I) penicillin intermediate, read-out: Microdilution MIC) of the same compound?
**A.** Its MIC is 0.016 µg/mL (≈ 0.0411 µM).

**Q.** And the MIC (pneumococcal strains; strain 9 (R) penicillin resistant, read-out: Microdilution MIC)?
**A.** Its MIC is 0.03 µg/mL (≈ 0.077 µM).

**Q.** What about the MIC (pneumococcal strains; strain 10 (I), read-out: Microdilution MIC) of the same compound?
**A.** Its MIC is 0.016 µg/mL (≈ 0.0411 µM).

**Q.** And the MIC (pneumococcal strains; strain 11 (R) penicillin resistant, read-out: Microdilution MIC)?
**A.** The MIC was 0.016 µg/mL (≈ 0.0411 µM).

**Q.** What about the MIC (pneumococcal strains; strain 12 (R) penicillin resistant, read-out: Microdilution MIC) of the same compound?
**A.** Its MIC is 0.03 µg/mL (≈ 0.077 µM).

**Q.** And the “fold more active than ciprofloxacin, ofloxacin, sparfloxacin and trovafloxacin” value [3]?
**A.** The value was 32 to 64 fold and 32-64 fold.
